From paper PMC10208570, “Peptidomimetic antibiotics disrupt the lipopolysaccharide transport bridge of drug-resistant Enterobacteriaceae” (Science Advances, 2023)
Where a SMILES comes first, the peptide text is derived from it. Bridges are numbered along the chain shown (N, C = ends). [ ]: non-standard residue; d: D form. The star is where a group is joined. X1 = CC1(CCCCS(=O)(=O)O)C(/C=C/C=C/C=C2/N(CCCS(=O)(=O)O)c3ccc(S(=O)(=O)O)cc3C2(C)C)=[N+](CCCCCC(=O)NCc2cn(CCOCCOCCOCCOCCC(=O)*)nn2)c2ccc(S(=O)(=O)[O-])cc21; Hyp = O=C(O)[C@@H]1C[C@@H](O)CN1; Pen = CC(C)(S)[C@H](N)C(=O)O; dDab = NCC[C@@H](N)C(=O)O; Dab = NCC[C@H](N)C(=O)O

Experiments:
[1] = target: T1, LptAm (Escherichia coli, UniProt P0ADV1); test: FP direct binding assay; design: species or system E. coli
T1 construct: His6-GB1 (N, cleaved yes); made in house; host or cells: E. coli BL21 (DE3)
T1 sequence (P0ADV1 28-159): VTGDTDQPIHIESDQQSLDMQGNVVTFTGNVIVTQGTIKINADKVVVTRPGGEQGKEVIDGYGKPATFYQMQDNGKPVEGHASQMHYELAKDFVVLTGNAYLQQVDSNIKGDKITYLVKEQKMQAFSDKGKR
Protocol: (§6) Anisotropy for the blank, the fluorescently labeled peptide only (6-FL only), was measured and subtracted from r to yield r′. The r′ data were normalized and fit to the One site − Total model on GraphPad Prism 9. A nonspecific binding factor (NS) was determined using a linear regression model (y = NS ∗ X + b) at the highest concentrations and incorporated into the fit. The dissociation constants (Kd) were calculated using the total protein concentrations using the equation y=Bmax∗X/Kd+X

[2] = target: T2, LptAmD33A (Escherichia coli, UniProt P0ADV1, D33A); test: FP direct binding assay; design: species or system E. coli
T2 construct: His6-GB1 (N, cleaved yes); made in house; host or cells: E. coli BL21 (DE3)
T2 sequence (P0ADV1 28-159 D33A): as the sequence (P0ADV1 28-159) above, with D6A counted along it
Protocol: as §6

[3] = target: T3, LptAmQ62L (Escherichia coli, UniProt P0ADV1, Q62L); test: FP direct binding assay; design: species or system E. coli
T3 construct: His6-GB1 (N, cleaved yes); made in house; host or cells: E. coli BL21 (DE3)
T3 sequence (P0ADV1 28-159 Q62L): as the sequence (P0ADV1 28-159) above, with Q35L counted along it
Protocol: as §6

[4] = target: T4, LptAmQ62L, D33A (Escherichia coli, UniProt P0ADV1, D33A/Q62L); test: FP direct binding assay; design: species or system E. coli
T4 construct: His6-GB1 (N, cleaved yes); made in house; host or cells: E. coli BL21 (DE3)
T4 sequence (P0ADV1 28-159 D33A/Q62L): as the sequence (P0ADV1 28-159) above, with D6A, Q35L counted along it
Protocol: as §6

[5] = target: T5, mLptA (Escherichia coli, UniProt P0ADV1, E39V/M47A/R76A); test: biochemical; format: binding, E. coli
T5 construct: the LptA25–185 mutant E39V M47A R76A was selected as the best candidate; His6-GB1 (N, cleaved yes); made in house; host or cells: E. coli BL21 (DE3)
T5 sequence (P0ADV1 25-185 E39V/M47A/R76A): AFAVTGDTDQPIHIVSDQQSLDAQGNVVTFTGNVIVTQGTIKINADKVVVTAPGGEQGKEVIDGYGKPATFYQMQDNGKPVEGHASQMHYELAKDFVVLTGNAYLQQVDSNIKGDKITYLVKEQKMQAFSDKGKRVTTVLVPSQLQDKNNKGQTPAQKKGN
Protocol: (§1) Protein stocks were purified and concentrated in buffer 1 [50 mM Na-Pi (pH 7) and 150 mM NaCl] and, if necessary, diluted to desired concentrations using buffer 2 [50 mM Na-Pi (pH 7), 150 mM NaCl, and 0.05% Tween 20]. Peptide stocks and fluorescently labeled peptide stocks were made in buffer 2. Every serial dilution consisted of 24 wells, the first well with the highest concentrate and the last well (well 24) with the lowest. First, 50 μl of buffer 2 was added to the wells 2 to 24 of each serial dilution. Then, 100 μl of concentrated unlabeled peptide/protein in their respective buffers was added to the first well. […] Anisotropy was measured using the Tecan Safire2 plate reader using a 10-nm bandwidth and setting the excitation and emission wavelengths to 635 and 670 nm, respectively. The G-factor (G) was also determined empirically as 1.094 for the instrument and included in all the anisotropy calculations.
(§2) For direct binding assays, fluorescence anisotropy (r) was calculated using the parallel and perpendicular polarized intensities (I) by the equation r=I∥−I⊥∗G/I∥+2I⊥∗G
(§3) Anisotropy for the blank, the fluorescently labeled peptide only (6-FL only), was measured and subtracted from r to yield r′. […] A nonspecific binding factor (NS) was determined using a linear regression model (y = NS ∗ X + b) at the highest concentrations and incorporated into the fit.

[6] = target: T6, mLptAQ62L (Escherichia coli, UniProt P0ADV1, E39V/M47A/Q62L/R76A); test: biochemical; format: binding, E. coli
T6 construct: the LptA25–185 mutant E39V M47A R76A was selected as the best candidate; His6-GB1 (N, cleaved yes); made in house; host or cells: E. coli BL21 (DE3)
T6 sequence (P0ADV1 25-185 E39V/M47A/Q62L/R76A): as the sequence (P0ADV1 25-185 E39V/M47A/R76A) above, with Q38L counted along it
Protocol: as §1, §2, §3

[7] = target: LptAmQ62L; conditions: read-out: Kd ± 95CI, K. pneumoniae LptAmQ62L; FP direct binding of 6-FL; triplicates; ± 95% CI of fit
Protocol: (§4) Protein stocks were purified and concentrated in buffer 1 [50 mM Na-Pi (pH 7) and 150 mM NaCl] and, if necessary, diluted to desired concentrations using buffer 2 [50 mM Na-Pi (pH 7), 150 mM NaCl, and 0.05% Tween 20]. Peptide stocks and fluorescently labeled peptide stocks were made in buffer 2. Every serial dilution consisted of 24 wells, the first well with the highest concentrate and the last well (well 24) with the lowest. First, 50 μl of buffer 2 was added to the wells 2 to 24 of each serial dilution. Then, 100 μl of concentrated unlabeled peptide/protein in their respective buffers was added to the first well. Fifty microliters were taken from the first well and added to the second well for a 1:1 serial dilution and continued for the 24 wells. […] Plates were covered with adhesive seals and left to incubate overnight at 4°C before FP measurements the next day. Anisotropy was measured using the Tecan Safire2 plate reader using a 10-nm bandwidth and setting the excitation and emission wavelengths to 635 and 670 nm, respectively. The G-factor (G) was also determined empirically as 1.094 for the instrument and included in all the anisotropy calculations.
as §2
(§5) Anisotropy for the blank, the fluorescently labeled peptide only (6-FL only), was measured and subtracted from r to yield r′. The r′ data were normalized and fit to the One site − Total model on GraphPad Prism 9. A nonspecific binding factor (NS) was determined using a linear regression model (y = NS ∗ X + b) at the highest concentrations and incorporated into the fit.

[8] = target: LptAm; conditions: read-out: Kd ± 95CI, K. pneumoniae LptAm; FP direct binding of 6-FL; triplicates; ± 95% CI of fit
Protocol: as §4, §2, §5

[9] = target: mLptA; conditions: read-out: Kd ± 95CI, K. pneumoniae mLptA; FP direct binding of 6-FL; triplicates; ± 95% CI of fit
Protocol: as §4, §2, §5

CC[C@H](C)[C@H](NC(=O)[C@@H]1C[C@@H](O)CN1C(=O)[C@@H](N)C(C)C)C(=O)N[C@H](C(=O)N[C@@H](Cc1ccc(O)cc1)C(=O)N[C@@H]1C(=O)N[C@@H](CC(N)=O)C(=O)N[C@@H](CCCNC(=N)N)C(=O)N[C@@H](CCN)C(=O)N[C@@H](CCCCNC(=O)CCOCCOCCOCCOCCn2cc(CNC(=O)CCCCC[N+]3=C(/C=C/C=C/C=C4/N(CCCS(=O)(=O)O)c5ccc(S(=O)(=O)O)cc5C4(C)C)C(C)(CCCCS(=O)(=O)O)c4cc(S(=O)(=O)[O-])ccc43)nn2)C(=O)N[C@H](CCN)C(=O)N[C@@H](CCCCN)C(=O)N[C@H](C(=O)N[C@@H](CCN)C(=O)N[C@@H](CCCNC(=N)N)C(=O)N[C@@H](Cc2ccc(O)cc2)C(=O)O)CSSC1(C)C)[C@@H](C)O (stereo partly drawn) [6-FL] (H-V[Hyp]ITY[Pen]NR[Dab]K(X1)[dDab]KC[Dab]RY-OH; disulfide 6-13)
Kd [1]: 6.9 ± 1.7 nM | Kd [2]: 13.8 ± 8.2 nM | Kd [3]: 73.3 ± 21.3 nM | Kd [4]: 82.4 ± 10.3 nM | Kd [5]: 968 ± 191 nM | Kd [6]: 8140 ± 1180 nM | Kd [7]: 242 ± 45.1 nM | Kd [8]: 3.7 ± 0.9 nM | Kd [9]: 453 ± 29.3 nM
